# Test results taken from patent US7390826B2, “Inhibitors of animal cell motility and growth” (The Board of Trustees of The University of Illinois, priority 2002, dated 2008).
# “Also recorded” adds a separate entry of the source. Like-named read-outs stand apart in the source and are kept apart here.
# Experiments:
# [1] = system: MDCK cells; assay: MDCK cell proliferation; assay type: cell-based, canine; conditions: 50 μM
# Procedure: In FIG. 2A, cells were plated at low cell density (1×10^4 cells/mL) and allowed to attach and begin to grow for 48 hours prior to the start of experiment. The treatments were 0.1% DMSO (control, n=9 cultures), 50 μM compound 1 (n=8), or 50 μM compound 11 (n=7). Reported values are mean with SEM of the percent increase in cell number from 0 to 48 hours after addition of compound 1.
# The values were mean with SEM of the percent increase in cell number another 48 hours after replacement of medium containing 50 μM compound 1 (n=8 cultures) or 0.1% DMSO (n=9) with fresh medium containing 0.1% DMSO.
# MDCK cell proliferation: MDCK cells were plated on multiwell tissue culture plates at low density ([…]). Cells were allowed to attach and begin to grow for 48 hours before the start of the experiment. Fresh medium with or without compound was then added, and cells were incubated for 48 hours. At both 0 and 48 hours, some of the parallel wells for control and compound treatments were washed twice with PBS and treated with trypsin/EDTA solution to detach the cells. An equal volume of medium was added, cells were collected and counted using a hemacytometer. For reversibility, some of the parallel cultures for both control and compound treatments were grown another 48 hours after washing twice with PBS and replacing medium with fresh compound-free medium. At both the time of washing out and 48 hours later, some of the parallel wells for control and compound treatments were washed twice with PBS, detached from the plates with trypsin/EDTA solution, and the number of cells was counted.
# [2] = system: Staphylococcus aureus; assay: bacterial growth (absorbance at 600 nm); assay type: cell-based; conditions: 50 μM; for absorbance at 600 nm: mean ± SEM
# Procedure: (§1) Reported values are the mean ±SEM for triplicate samples.
# (§2) Bacterial growth: Staphylococcus aureus or Escherichia coli (DH5a strain) were grown in Luria-Bertani (LB) medium for 12 hours at 37° C. in a shaking incubator. Dilutions into fresh LB medium with 0.1% DMSO (solvent carrier control) or 50 μM compound 1 were made to an absorbance at 600 nm (A600) of about 0.1. Bacteria were incubated at 37° C. with shaking during the experiment, and A600 measurements were made at set time intervals during log growth phase until the plateau phase was reached.
# [3] = system: Escherichia coli (DH5a strain); assay: bacterial growth (absorbance at 600 nm); assay type: cell-based; conditions: 50 μM
# Procedure: as §1, §2
# [4] = system: MDCK cell monolayers; assay: filamentous actin staining (rhodamine-phalloidin) of wounded MDCK monolayers; assay type: cell-based, canine; conditions: 50 μM; 12 hours after wounding
# Procedure: Although formation of perimarginal actin bundles is not required for wound closure in this system, these actin bundles may help to distribute force in the first row of cells from actively protruding and moving cells to less-actively motile cells, thus making the closure process more regular and uniform than it would be otherwise.
# Filamentous actin staining: MDCK cell mono-layers on glass coverslips-were fixed with 3.7% formaldehyde in PBS 12 hours after wounding. Cells were permeabilized with 0.1% (w/v) TRITONO X-100 in PBS, stained with 50 nM tetramethylrhodamine-conjugated phalloidin in PBS, and washed twice with PBS. Coverslips were mounted in 90% glycerol/10% ten strength PBS with 2 mg/mL p-phenylenediamine on glass slides and then examined by fluorescence microscopy.
# [5] = system: Madin-Darby canine kidney (MDCK) cell monolayers; assay: scrape-wound closure assay in MDCK cell monolayers; assay type: cell-based; conditions: for IC50: Canis lupus familiaris, MDCK, 12 h
# Excerpt: A method of determining the ability of a compound to inhibit or accelerate cell motility is a scrape-wound closure assay using cultured mammalian epithelial cell monolayers. Mechanical scraping of the epithelial monolayer induces cell sheet migration into the resulting gap, a phenomenon characteristic of wounded epithelia and mechanistically related to normal epithelial movements during embryonic morphogenesis (A. Jacinto et al., Nat. Cell Biol, 3, E117 (2001)). Epithelial cell sheet migration in this method proceeds by a Rac- and phosphoinositide-dependent cell crawling mechanism resembling the motility of other animal cells that move as individuals rather than as cell sheets (G. Fenteany et al., Curr. Biol., 10, 831 (2000)).
# Wound closure in MDCK cell monolayers primarily involves cell spreading and motility rather than proliferation based on observations and treatments that block cell growth without inhibiting closure. However, after closure is complete and the gap is covered, cell division is observed in the former wound area, presumably as part of a homeostatic mechanism to regain the original cell density (M. F. Olson et al., Science, 269, 1270 (1995)). Wound closure involves Rac- and phosphoinositide-dependent actin polymerization and protrusion-driven cell crawling behavior, where force generation for movement is distributed from the wound margin to several rows of cells behind the margin. Accordingly, this method is excellent for determining whether a compound affects cell motility.
# Cell culture conditions: Madin-Darby canine kidney (MDCK) cells (American Type Culture Collection cell line CCL-34) were cultured in Minimum Essential Medium (with Earle's balanced salts, non-essential amino acids, L-glutamine and sodium pyruvate) supplemented with 10% newborn calf serum at 37° C. and 5% carbon dioxide (CO2). Main cultures were grown in either […] tissue culture flasks with medium changes every two days. When cultures were about 75% confluent, cells were passaged by rinsing twice with single strength phosphate buffered saline (PBS) and treating with a solution of 0.05% (w/v) trypsin/0.02% (w/v) ethylenediaminetetraacetic acid (EDTA) in PBS to detach cells from the flasks. After cells were detached, an equal volume of serum-containing medium was added to inhibit the trypsin and cell density was determined using a hemacytometer. Cells were replated following dilution in fresh medium on new tissue culture flasks for continued culture and multiwell tissue culture plates for experiments. No culture used exceeded 15 passages. Experimental cultures were grown in 12-, 24-, 48-, or 96-well tissue culture plates with medium changes every two days.
# Wound closure assay and compound screening: MDCK cells were plated on multiwell tissue culture plates and cultured at 37° C. and 5% CO2 with medium changes every two days until confluent. When the cultures reached confluence, medium was changed again and all experimental treatments were begun a day later. Compounds were solubilized in dimethyl sulfoxide (DMSO) and added with fresh-medium to cell cultures at initial screening concentrations of 10 and 100 μM. Controls consisted of parallel wells to-which DMSO solvent carrier alone was added at the same concentration as that added with experimental treatments (not exceeding 0.1% (v/v)). DMSO alone at this concentration had no detectable effect on the cells. Monolayers were scraped 30 min later with a micropipette and ultramicro tips, allowing small wounds of consistent size to be generated. Progress of wound closure was examined at set time intervals following wounding by microscope, and inhibitory or acceleratory effects on wound closure relative to parallel controls noted. […] Digital images of the wounded monolayers were taken every 2 hours for 18 hours, and then at 30, 36, 54, 60, and 72 hours following wounding. The number of lamellipodia at the wound margin was also counted at these times. […]
structure (smiles),measurement,setting,value
"C/C=C/C(=O)N1C(=O)OC[C@@H]1Cc1ccccc1 [Compound 1, (4S)-3-((E)-2-butenoyl)-4-benzyl-2-oxazolidinone]",inhibition of MDCK cell proliferation (percent increase in cell number),[1]; 0 to 48 hours,reversibly inhibited MDCK cell proliferation
same,reversibility of inhibition of cell proliferation,[1]; another 48 hours after washing out,reversible
same,inhibition of growth of Staphylococcus aureus (Gram-positive),[2],does not inhibit the growth
same,absorbance at 600 nm,[2]; 0 hours,0.117 ± 0.037
same,absorbance at 600 nm,[2]; 1 hours,0.160 ± 0.056
same,absorbance at 600 nm,[2]; 2 hours,0.332 ± 0.130
same,absorbance at 600 nm,[2]; 3 hours,0.615 ± 0.162
same,absorbance at 600 nm,[2]; 4 hours,0.937 ± 0.181
same,absorbance at 600 nm,[2]; 27 hours,3.265 ± 0.196
same,absorbance at 600 nm,[2]; 31 hours,3.608 ± 0.271
same,inhibition of growth of Escherichia coli (Gram-negative),[3],does not inhibit the growth
same,formation of filamentous actin bundles at wound margin,[4],did not affect formation of filamentous actin bundles
same,IC50,[5]; read-out: calculated IC50 for inhibition of wound closure at 12 hours,14 µM
same,IC50,[5]; read-out: log IC50±standard error of log IC50 (converted),14 µM
same,inhibition of cell motility / epithelial cell sheet migration during wound closure,"[5]; MDCK cells, p<0.05",potent inhibitor of cell motility; also recorded: inhibits epithelial cell sheet migration during wound closure
same,inhibition of wound closure in serum-free conditions,[5]; serum-free,inhibited wound closure to a similar degree relative to the control
same,reversibility of inhibition of wound closure,[5]; upon changing to compound-free medium,reversible
